Data reported in PubChem BioAssay AID463206 (Broad Institute, 2010).
The source made the active and inactive calls.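 How the source made its calls: active means caspase luminescence falls with dose and the half-maximal concentration AC50 from the fitted curve is at or below a set limit; inconclusive means flat fit at 30 to 70% signal loss, or invalid fit; inactive means AC50 above the limit, or signal rises instead.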

System: INS-1E cytokine-induced caspase-3/7, Caspase-Glo luminescence, 48 h
Test: inhibitors of cytokine-induced caspase-3/7 activity, dose response, orthogonal assay for beta-cell apoptosis protection project, INS-1E rat cells, luminescence (AID 463206)

Row | Structure (SMILES) | AC50
1 | Cc1ccc(S(=O)(=O)Nc2ccc(O)c3ccccc23)c(C)c1 | > 26 µM (inactive)
2 | O=C(c1ccccc1)c1c2c(cc3sc4ccccc4[n+]13)-c1cccc3cccc-2c13 | > 26 µM (inactive)
3 | COc1cccc(/C=N/Nc2ccnc(=O)[nH]2)c1O | > 26 µM (inactive)
4 | CCC(=O)NC(c1ccccc1OC)c1ccc2cccnc2c1O (stereo not given) | > 26 µM (inactive)
5 | CC(=O)NC(c1cc(Cl)c2cccnc2c1O)C1CC1 (stereo not given) | > 26 µM (inactive)
6 | COc1ccc(Cn2c(SCc3ccc(C)cc3)nc3cc(OC)c(OC)cc3c2=N)cc1Cl | > 26 µM (inactive)
7 | Cc1ccc(C)c(S(=O)(=O)N2CCN(Cc3ccc(O)c4ncccc34)CC2)c1 | > 26 µM (inactive)
8 | C/C(=N\NC(=O)c1ccoc1C)c1ccccc1O | > 26 µM (inactive)
9 | C#Cc1ccc([C@@H]2C=C(C(=O)N3CCN(Cc4ccccc4)CC3)O[C@H](OCCCCO)C2)cc1 | > 26 µM (inactive)
10 | O=C(c1cc(-c2cccc(Cl)c2)nc2ccccc12)N1CCN(c2ccccn2)CC1 | > 26 µM (inactive)
11 | CNc1nc(N/N=C/c2cc3c(cc2[N+](=O)[O-])OCO3)nc(Nc2ccccc2)n1 | > 26 µM (inactive)
12 | CCCCCCOc1ccc(CN2CCN(C)CC2)cc1 | > 26 µM (inactive)
13 | CN(C)CC(C(=O)c1ccccc1)c1ccccc1 (stereo not given) | > 26 µM (inactive)
14 | COc1cnc(-c2ccccn2)nc1N(C)C | > 26 µM (inactive)
15 | O=C1C(Cl)=C(NCCN2CCCCC2)C(=O)c2ccccc21 | > 26 µM (inactive)
16 | Cc1cc(NC2CCCCC2)nc(NCc2ccccc2)n1 | > 26 µM (inactive)
17 | Cc1ccc(-c2nc(C(Cl)Cl)c3ccccc3n2)cc1 | 2.66 µM
18 | c1ccc2c(c1)OCC(CNc1ncnc3sccc13)O2 (stereo not given) | > 26 µM (inactive)
19 | Cc1occc1C(=O)N/N=C/c1c(O)ccc2ccccc12 | > 26 µM (inactive)
20 | c1ccc(CCNc2ncnc3ccccc23)cc1 | > 26 µM (inactive)
21 | CC(=O)C1=NN(c2ccccc2)C(c2cccs2)N1c1ccc(N(C)C)cc1 (stereo not given) | > 26 µM (inactive)
22 | CCN(CC)S(=O)(=O)c1ccc(N/N=C/c2cc(OC)ccc2O)nc1 | > 26 µM (inactive)
23 | O=C(CN1CCCc2ccccc21)N/N=C/c1ccccc1O | > 26 µM (inactive)
24 | CN1N=C(C(C)(C)C)CSC1=Nc1ccccc1 | > 26 µM (inactive)

Row | Structure (SMILES) | AC50
25 | Nc1ccc(Nc2ccc([N+](=O)[O-])cc2[N+](=O)[O-])cc1 | > 26 µM (inactive)
26 | COc1cccc(/C=N\NC(=O)c2ccc(Cn3cc(Br)c([N+](=O)[O-])n3)o2)c1O | > 26 µM (inactive)
27 | N=c1c2c(-c3ccccc3)c(-c3ccccc3)n(Cc3ccco3)c2ncn1Cc1ccccc1 | > 26 µM (inactive)
28 | Cc1nc2ccccc2c(=O)n1/N=C/c1c(O)ccc2ccccc12 | > 26 µM (inactive)
29 | CCSc1ccc(NC(=O)c2cccnc2)cc1 | > 26 µM (inactive)
30 | COc1ccc(-c2ccnc(SCC(=O)N3CCN(c4ccccc4)CC3)n2)cc1 | > 26 µM (inactive)
31 | Cc1nc2ccccn2c1C(=O)/C=C/c1cccc([N+](=O)[O-])c1 | > 26 µM (inactive)
32 | CCC1CCCCN1C(=O)c1cc(COc2ccc3ncccc3c2)on1 (stereo not given) | > 26 µM (inactive)
33 | Cc1ccc(C2CC(c3ccc(C)cc3)n3nc(N)nc3N2)cc1 (stereo not given) | > 26 µM (inactive)
34 | O=C(N/N=C/c1c(O)ccc2ccccc12)c1ccc(Br)o1 | > 26 µM (inactive)
35 | Cc1ccc(N=Nc2ccc(O)c3ncccc23)cc1 | > 26 µM (inactive)
36 | Cc1cc(C)nc(SCC(=O)Nc2ccnc3ccccc23)n1 | > 26 µM (inactive)
37 | Cc1ccc2ccc3ccc(C)nc3c2n1 | > 26 µM (inactive)
38 | O=[N+]([O-])c1c(Nc2ccc(O)cc2)cc(Cl)c2nonc12 | > 26 µM (inactive)
39 | Cc1cc(S(=O)(=O)NCc2ccncc2)c(C)cc1Br | > 26 µM (inactive)
40 | O=C(Nc1ccc(OC(F)F)cc1)Nc1cccc(C(F)(F)F)c1 | > 26 µM (inactive)
41 | COc1ccccc1N1C(C)=CC(=C(C#N)c2nc3ccccc3s2)C=C1C | > 26 µM (inactive)
42 | COc1ccc(/C=C/c2nc3ccccc3n2C)cc1 | > 26 µM (inactive)
43 | CCCCC[n+]1cccc2c3ccccc3ccc21 | > 26 µM (inactive)
44 | CCc1ccc(CN(C)C(=O)c2cc(COc3cccc4cnccc34)on2)cc1 | > 26 µM (inactive)
45 | O=C(Nc1ncnc2c1C(c1ccccc1)c1c(ccc3ccccc13)O2)c1ccccc1 (stereo not given) | > 26 µM (inactive)
46 | Oc1ccc2ccccc2c1/C=N/Nc1nnc(-c2ncc[nH]2)c2ccccc12 | > 26 µM (inactive)
47 | CCN(CC)c1ccc2nc3ccccc3[n+](CC)c2c1 | > 26 µM (inactive)
48 | Cc1ccc(C)c(S(=O)(=O)Nc2ccc(O)c3ccccc23)c1 | > 26 µM (inactive)

Row | Structure (SMILES) | AC50
49 | COc1ccc(C(=O)N/N=C/c2cc(Br)ccc2O)cc1OC | > 26 µM (inactive)
50 | CCN(CC)c1ccc(/C=N/NC(=O)c2cnccn2)c(O)c1 | > 26 µM (inactive)
51 | Cc1ccc(Sc2cc(C)nc(-c3ccccn3)n2)cc1 | > 12 µM (inactive)
52 | COC(=O)[C@H](Cc1ccccc1)N(Cc1ccccc1)S(=O)(=O)N(Cc1ccccc1)[C@@H](Cc1ccccc1)C(=O)OC | > 26 µM (inactive)
53 | CC1=NN(c2nc3ccccc3[nH]2)C(=O)C1Cc1ccccc1 (stereo not given) | > 26 µM (inactive)
54 | CC(=O)c1c(C)[nH]c(C(=O)OCCCCN2C(=O)c3ccccc3C2=O)c1C | > 26 µM (inactive)
55 | O=C(N/N=C/c1ccc(O)cc1O)c1ccc(CN2C(=O)c3cccc4cccc2c34)cc1 | > 26 µM (inactive)
56 | COc1ccc(CN(C)C(=O)c2ccc(NS(=O)(=O)c3ccc(F)cc3)cc2)c(OC)c1OC | > 26 µM (inactive)
57 | CN1/C(=C\C=N\NC(=O)c2ccc(O)cc2)C(C)(C)c2ccccc21 | > 26 µM (inactive)
58 | CC(C)(C)c1ccc(/C=C(\c2nc3ccccc3[nH]2)S(=O)(=O)c2ccccc2)cc1 | > 26 µM (inactive)
59 | CCCC1CCC(c2ccc(C(=O)NN)cc2)CC1 (stereo not given) | > 12 µM (inactive)
60 | COc1ccc([C@H]2CC(=O)C=C(c3ccnc4ccc(Cl)cc34)C2)cc1 | > 26 µM (inactive)
61 | N/C(=N\OC(=O)c1ccc(Cl)cc1Cl)c1ccccn1 | > 26 µM (inactive)
62 | O=[N+]([O-])/C=C/c1cn(Cc2ccc(F)cc2)c2ccccc12 | > 26 µM (inactive)
63 | N#CC(C#N)=C(Nc1ccc(F)cc1)SCc1cccc(Br)c1 | > 26 µM (inactive)
64 | CCOc1ccc(-n2c(-c3ccc(Br)cc3)c[n+]3c2CCCCC3)cc1 | > 26 µM (inactive)
65 | Clc1ccc(OCCN2CCN(c3ncnc4sccc34)CC2)cc1 | > 26 µM (inactive)
66 | COc1ccc(NC(=O)c2c(Nc3ccccc3)sc(C(=O)c3ccc(F)cc3)c2N)cc1 | > 26 µM (inactive)
67 | CCC(=O)NC(c1cccs1)c1cc(Cl)c2cccnc2c1O (stereo not given) | > 26 µM (inactive)
68 | CCCCOc1ccc(C(=O)NNC(=S)NC(=O)CC)cc1 | > 26 µM (inactive)
69 | CN1/C(=C\C=C2/SC(=S)NC2=O)C(C)(C)c2ccccc21 | > 26 µM (inactive)
70 | OC(COC(c1ccc(F)cc1)c1ccc(F)cc1)CN1CCc2ccccc2C1 (stereo not given) | > 26 µM (inactive)
71 | C#CCn1c(=NC(=O)c2ccc(S(=O)(=O)N3CCc4ccccc4C3)cc2)sc2cc(S(N)(=O)=O)ccc21 | > 26 µM (inactive)
72 | C(/CCc1ccccc1)=N\Nc1nc2ccccc2[nH]1 | > 26 µM (inactive)

Row | Structure (SMILES) | AC50
73 | Cc1ccc(Cl)cc1NC1=C/C(=N\S(=O)(=O)c2cccs2)c2ccccc2C1=O | > 26 µM (inactive)
74 | O=C(Nc1ccc(Cl)cc1)Nc1ccc(N2CCCC2)c(S(=O)(=O)Nc2ccccc2Cl)c1 | > 26 µM (inactive)
75 | CC1CCN(Cc2c(C(=O)N/N=C/c3ccccc3O)nnn2-c2nonc2N)CC1 | > 26 µM (inactive)
76 | Cc1cc(C)c(S(=O)(=O)/N=C2/C=C(Sc3ncn[nH]3)C(=O)c3ccccc32)cc1C | > 26 µM (inactive)
77 | COc1ccc(OC)c(NC(=O)c2nc(S(=O)(=O)Cc3ccccc3)ncc2Cl)c1 | > 26 µM (inactive)
78 | C=CCCc1ccc(C#N)c(SCc2c(C(=O)OCC)c3cc(OC(C)=O)c(Br)cc3n2C)n1 | > 26 µM (inactive)
79 | Cn1nccc1C(=O)NC1CCCc2c1cnn2-c1ccc(C(C)(C)C)cc1 (stereo not given) | > 26 µM (inactive)
80 | CC[C@@H](C(=O)[C@@H](C)[C@@H](O)[C@H](C)CCc1ccc(C)c(O)c1C(=O)O)[C@H]1O[C@](CC)([C@H]2CC[C@](O)(CC)[C@H](C)O2)C[C@@H]1C | > 12 µM (inactive)
81 | Cc1cc(C)c2nc(NNC(=O)c3ccc(S(=O)(=O)N4CC(C)CC(C)C4)cc3)sc2c1 (stereo not given) | > 26 µM (inactive)
82 | CC(C)(C)OC(=O)NCc1ccc(NC(=O)c2nc[nH]c2C(=O)NCCCCNC(=O)c2[nH]cnc2C(=O)Nc2ccc(CNC(=O)OC(C)(C)C)cc2)cc1 | > 26 µM (inactive)
83 | CCCCOCCCNc1ncnc2c1[nH]c1ccccc12 | > 26 µM (inactive)
84 | COc1ccc(N=C2S/C(=C\c3ccc(N4CCOCC4)o3)C(=O)N2CCc2c[nH]c3ccccc23)cc1 | > 26 µM (inactive)
85 | NC(=O)c1c(-c2ccc(Cl)cc2Cl)csc1NC(=O)Cc1ccccc1 | > 26 µM (inactive)
86 | O=S(=O)(c1cccs1)N1CCN(CC(O)COc2cc(Cl)ccc2Cl)CC1 (stereo not given) | > 26 µM (inactive)
87 | C/C(Cn1nnc([N+](=O)[O-])n1)=N\NC(=O)c1ccccc1Cl | > 26 µM (inactive)
88 | C/C(=N\NC(=O)c1ccc(NS(=O)(=O)c2cccs2)cc1)c1ccccn1 | > 12 µM (inactive)
89 | Cc1cc(C)cc(NC(=O)/C(C#N)=C/c2cn(CC(=O)NCc3ccco3)c3ccccc23)c1 | > 26 µM (inactive)
90 | COc1cccc(/C=N/NC(=O)c2[nH]nc3c2CCc2ccccc2-3)c1O | > 26 µM (inactive)
91 | CC(=O)N1CCN(c2ccc(Oc3ccc([N+](=O)[O-])c(C(F)(F)F)c3)cc2)CC1 | > 26 µM (inactive)
92 | CCOc1ccc(S(=O)(=O)N(C(=O)c2ccco2)c2cc3sc(=O)oc3c3ccccc23)cc1 | > 26 µM (inactive)
93 | COc1ccc(-n2c(=S)[nH]c3cc(C(=O)Nc4ccccc4OC)ccc3c2=O)cc1 | > 26 µM (inactive)
94 | COc1ccccc1CNCC(O)Cn1c2ccccc2c2ccccc21 (stereo not given) | > 26 µM (inactive)
95 | CCC1(c2ccc(F)cc2)NC(=O)N(CC(=O)Nc2ccc(-c3nc4ccc(C)cc4s3)cc2)C1=O (stereo not given) | > 26 µM (inactive)
